Assay results: ChEMBL document CHEMBL5338790, “Discovery of Subcellular-Targeted Aza-BODIPY Photosensitizers for Efficient Photodynamic Antitumor Therapy” (J Med Chem, 2023)
The source made the active and inactive calls. The rule behind the calls is not given here.

Assays:
[1] = Drug distribution in lungs of Balb/C nu/nu mouse xenografted with human HeLa cells at 2.5 umol/kg, iv measured for 24 hr by IVIS imaging analysis; type: ADME, organism-based, Lung; conditions: in vivo, dose 2.5 µmol/kg
[2] = Drug distribution in heart of Balb/C nu/nu mouse xenografted with human HeLa cells at 2.5 umol/kg, iv measured for 1 hr by IVIS imaging analysis; type: ADME, organism-based; conditions: in vivo, dose 2.5 µmol/kg
[3] = Drug distribution in tumor of Balb/C nu/nu mouse xenografted with human HeLa cells at 2.5 umol/kg, iv measured for 24 hr by IVIS imaging analysis; type: ADME, organism-based, Neoplasm; conditions: in vivo, dose 2.5 µmol/kg
[4] = Drug distribution in liver of Balb/C nu/nu mouse xenografted with human HeLa cells at 2.5 umol/kg, iv measured for 24 hr by IVIS imaging analysis; type: ADME, organism-based; conditions: in vivo, dose 2.5 µmol/kg
[5] = system: HeLa; experiment: Antitumor activity against human HeLa cells xenografted in Balb/C nu/nu mouse assessed as reduction in tumor histology at 2.5 umol/kg, iv with photo-irradiation at 30 J/cm2 after 1 hr of compound administration measured after 24 days by H and E staining based analysis; type: functional, organism-based; conditions: dose 2.5 µmol/kg, time 24.0 day
[6] = system: HeLa; experiment: Induction of apoptosis in human HeLa cells assessed as early apoptotic cells at 50 nM incubated for 3 hrs with photo-irradiation at 54 J/cm2 by Annexin V-FITC/PI staining based flow cytometry relative to control; type: functional
[7] = Toxicity in Balb/C nu/nu mouse xenografted with human HeLa cells assessed as change in kidney histology at 2.5 umol/kg, iv with photo-irradiation at 30 J/cm2 after 1 hr of compound administration measured after 24 days by H and E staining based analysis; type: organism-based; conditions: in vivo, 576 h, dose 2.5 µmol/kg, time 24 day
[8] = Drug localization in lysosome of human HeLa cells at 5 uM incubated for 30 mins by Lyso-tracker Green DND-26 dye based confocal scanning microscopic analysis; type: ADME, subcellular; conditions: 0.5 h
[9] = system: HeLa; experiment: Induction of ROS production in human HeLa cells upto 200 nM preincubated for 2 hrs followed by H2DCFDA probe exposure for 30 mins and subsequent removal of probe with photo-irradiation at 16 J/cm2 by confocal scanning microscopic analysis; type: functional, cell-based; conditions: time 2.5 hrs
[10] = system: HeLa; experiment: Induction of apoptosis in human HeLa cells assessed as viable cells at 25 nM incubated for 3 hrs with photo-irradiation at 54 J/cm2 by Annexin V-FITC/PI staining based flow cytometry relative to control; type: functional; conditions: light or radiation study, read-out: Activity
[11] = system: HUVEC; experiment: Photodynamic cytotoxicity against HUVEC cells assessed as inhibition of cell viability incubated for 3 hrs followed by photo-irradiation at 54 J/cm2 measured after 24 hrs by CCK8 assay; type: functional, cell-based; conditions: Homo sapiens, light or radiation study
[12] = system: HeLa; experiment: Induction of apoptosis in human HeLa cells assessed as increase in percentage of apoptosis/necrosis at 25 nM incubated for 3 hrs with photo-irradiation at 54 J/cm2 by Annexin V-FITC/PI staining based flow cytometry relative to control; type: functional
[13] = Drug distribution in spleen of Balb/C nu/nu mouse xenografted with human HeLa cells at 2.5 umol/kg, iv measured for 24 hr by IVIS imaging analysis; type: ADME, organism-based; conditions: in vivo, dose 2.5 µmol/kg
[14] = Drug distribution in liver of Balb/C nu/nu mouse xenografted with human HeLa cells at 2.5 umol/kg, iv measured for 1 hr by IVIS imaging analysis; type: ADME, organism-based; conditions: in vivo, dose 2.5 µmol/kg
[15] = Drug distribution in tumor of Balb/C nu/nu mouse xenografted with human HeLa cells at 2.5 umol/kg, iv measured for 1 hr by IVIS imaging analysis; type: ADME, organism-based, Neoplasm; conditions: in vivo, dose 2.5 µmol/kg
[16] = Toxicity in Balb/C nu/nu mouse xenografted with human HeLa cells assessed as change in spleen histology at 2.5 umol/kg, iv with photo-irradiation at 30 J/cm2 after 1 hr of compound administration measured after 24 days by H and E staining based analysis; type: organism-based; conditions: in vivo, 576 h, dose 2.5 µmol/kg, time 24 day
[17] = Cytotoxicity against human HeLa cells assessed as inhibition of cell viability under dark condition incubated for 27 hrs by CCK8 assay; type: toxicity, cell-based
[18] = system: HeLa; experiment: Induction of apoptosis in human HeLa cells assessed as late apoptotic cells at 50 nM incubated for 3 hrs with photo-irradiation at 54 J/cm2 by Annexin V-FITC/PI staining based flow cytometry relative to control; type: functional
[19] = system: HeLa; experiment: Induction of ROS production in human HeLa cells preincubated for 2 hrs followed by H2DCFDA probe exposure for 30 mins and subsequent removal of probe with photo-irradiation at 16 J/cm2 by confocal scanning microscopic analysis; type: functional, cell-based; conditions: dose <= 200.0 nM, time 2.5 hrs
[20] = Toxicity in Balb/C nu/nu mouse xenografted with human HeLa cells assessed as change in lung histology at 2.5 umol/kg, iv with photo-irradiation at 30 J/cm2 after 1 hr of compound administration measured after 24 days by H and E staining based analysis; type: organism-based; conditions: in vivo, 576 h, dose 2.5 µmol/kg, time 24 day
[21] = system: HeLa; experiment: Induction of apoptosis in human HeLa cells assessed as viable cells at 12.5 nM incubated for 3 hrs with photo-irradiation at 54 J/cm2 by Annexin V-FITC/PI staining based flow cytometry relative to control; type: functional; conditions: light or radiation study, read-out: Activity
[22] = system: HeLa; experiment: Disruption of lysosomes in human HeLa cells at 50 to 100 nM incubated for 3 hrs with photo-irradiation at 16 J/cm2 by AO staining based confocal scanning microscopy; type: functional, cell-based; conditions: dose 50-100 nM
[23] = Drug distribution in spleen of Balb/C nu/nu mouse xenografted with human HeLa cells at 2.5 umol/kg, iv measured for 1 hr by IVIS imaging analysis; type: ADME, organism-based; conditions: in vivo, dose 2.5 µmol/kg
[24] = system: HeLa; experiment: Induction of apoptosis in human HeLa cells assessed as early apoptotic cells at 25 nM incubated for 3 hrs with photo-irradiation at 54 J/cm2 by Annexin V-FITC/PI staining based flow cytometry relative to control; type: functional
[25] = system: HeLa; experiment: Induction of apoptosis in human HeLa cells assessed as increase in percentage of apoptosis/necrosis at 12.5 nM incubated for 3 hrs with photo-irradiation at 54 J/cm2 by Annexin V-FITC/PI staining based flow cytometry relative to control; type: functional
[26] = system: HepG2; experiment: Photodynamic cytotoxicity against human HepG2 cells assessed as inhibition of cell viability incubated for 3 hrs followed by photo-irradiation at 54 J/cm2 measured after 24 hrs by CCK8 assay; type: functional, cell-based; conditions: HepG2, light or radiation study
[27] = Drug uptake in human HeLa cells at 5 uM by confocal scanning microscopy; type: ADME, cell-based; conditions: 3 h, TDE = time-dependent effect
[28] = system: HeLa; experiment: Induction of apoptosis in human HeLa cells assessed as late apoptotic cells at 100 nM incubated for 3 hrs with photo-irradiation at 54 J/cm2 by Annexin V-FITC/PI staining based flow cytometry relative to control; type: functional
[29] = Drug uptake in human HeLa cells at 5 uM incubated for 3 hrs by confocal scanning microscopy; type: ADME, cell-based
[30] = system: HeLa; experiment: Induction of apoptosis in human HeLa cells assessed as necrotic cells at 100 nM incubated for 3 hrs with photo-irradiation at 54 J/cm2 by Annexin V-FITC/PI staining based flow cytometry relative to control; type: functional
[31] = system: HeLa; experiment: Induction of apoptosis in human HeLa cells assessed as early apoptotic cells at 100 nM incubated for 3 hrs with photo-irradiation at 54 J/cm2 by Annexin V-FITC/PI staining based flow cytometry relative to control; type: functional

Drug uptake [1]: Not Active
Drug uptake [2]: Active
Drug uptake [3]: Not Active
Drug uptake [4]: Not Active
Drug uptake [8]: Active
Drug uptake [13]: Not Active
Drug uptake [14]: Active
Drug uptake [15]: Active
Drug uptake [23]: Active
Drug uptake [27]: Tde
Drug uptake [29]: Active
SMILES: COc1ccc2c(c1)CCc1c(-c3ccccc3)c3n(c1-2)[B-](F)(F)[N+]1=C(c2ccc(OCC(=O)NCCCN4CCOCC4)cc2)C(I)=C(c2ccccc2)C1=N3
Activity [5]: Active
Activity [6]: 58.93%
Activity [7]: Non-Toxic
Activity [9]: Active
viability at 0.025 µM [10]: 47%
IC50 [11]: 11.9 nM
Activity [12]: 13.1%
Activity [16]: Non-Toxic
IC50 at 27 h [17]: > 50000 nM
Activity [18]: 13.58%
Activity [19]: Dose-Dependent Effect
Activity [20]: Non-Toxic
viability at 0.0125 µM [21]: 88.1%
Activity [22]: Active
Activity [24]: 36.45%
Activity [25]: 10.9%
IC50 [26]: 6.1 nM
Activity [28]: 16.6%
Activity [30]: 0.57%
Activity [31]: 73.1%
